Test results taken from PMC12560828, “Chemical structure drives developmental toxicity of alkyl-substituted naphthalenes in zebrafish” (Environment international, 2025).

Tests used:
[1] = test system: zebrafish larvae, 120 hpf; assay: Larval photomotor response (LPR) assay after vial exposure; assay type: in vivo, Danio rerio; conditions: for fold_change: LPR
Description: (§1) When embryos were 6 hpf they were bleached in groups of 1000 or less to limit bacterial growth in sealed vials. Embryos were placed in a strainer for transfer between solutions in 500 mL containers. […] Pools of eight embryos were placed into 2 mL clear glass screw cap exposure vials with polyvinyl-faced pulp liner (Avantar Radnor, PA, United States) using a glass Pasteur pipette. Excess EM was removed, and 2 mL of fresh EM was immediately added. A total of 10 uL of 200x working stock (in DMSO) was added to each vial, then immediately capped and inverted three times to mix. […] Vials were loaded into a custom 3D printed vial holder for slow end-over-end rotation in a dark 28 °C incubator overnight. […] At 24 hpf, embryos were removed from exposure vials and singulated into 96-well plates loaded with 100 μL chemical-free EM. Each exposure vial group was maintained in plate columns. After loading into 96-well plates, embryos were assessed for 24-hour mortality. For the remainder of the exposure, plates were kept stationary at 28 °C in the dark, until 120 hpf when morphology screening and the larval photo motor response (LPR) assay were conducted, section 2.3.2 and section 2.3.3, respectively.
Each treatment group was replicated over four vials, resulting in 32 embryos per treatment, split over two replicate 96-well plates per chemical. […] Vial groups of plated larvae were tracked to assess the impact of the vial on the results. All reported concentrations were nominal water concentrations and are included in SI-T4.
The LPR assay was conducted at 120 hpf. […] Larval movement was tracked throughout minutes 6–24. Animals dead or morphologically abnormal were excluded from the analysis, and if more than 30 % of the wells in a treatment group were excluded, the treatment was removed.
Movement values were binned into 6s intervals, log normalized and used to calculate area under the curve (AUC). AUC values from the first cycle after calibration were used to calculate the LEL for each period (light and dark).

[2] = test system: early life stage zebrafish (Danio rerio) embryos; assay: Developmental toxicity morphology screen, sealed rotating vial exposure; assay type: in vivo; set-up: bmd, MO24 / bmd, MORT / bmd, ANY_ / bmd, AXIS / bmd, CRAN / bmd, EDEM / bmd, LTRK / bmd, MUSC / bmdL, ANY_ / bmdU, ANY_ / bmdL, AXIS / bmdU, AXIS / bmdL, CRAN / bmdU, CRAN / bmdL, EDEM / bmdU, EDEM / bmdL, LTRK / bmdU, LTRK / bmdL, MO24 / bmdU, MO24 / bmdL, MORT / bmdU, MORT: unit not given here; conditions: for BMC50 Any effect: Fig. 2 heatmap, exposure 6-24 hpf in vials, summary of all endpoints; for any effect BMD50: SI-T5; for bmd, MO24: endpoint MO24; for bmd, MORT: endpoint MORT; for bmd, ANY_: morphology endpoint ANY_ (any effect); for bmd, AXIS: morphology endpoint AXIS; for bmd, CRAN: morphology endpoint CRAN; for bmd, EDEM: morphology endpoint EDEM
Description: as §1
Each treatment group was replicated over four vials, resulting in 32 embryos per treatment, split over two replicate 96-well plates per chemical. […] All reported concentrations were nominal water concentrations and are included in SI-T4.
At 24 hpf embryos were assessed for mortality (MO24). At 120 hpf embryos were assessed for abnormality in […] morphological endpoints: mortality (MORT), edemas (EDEM), bent axis (AXIS), touch response (TCHR), craniofacial (CRAN), muscular/cardiovascular (MUSC), lower trunk (LRTK), brain (BRAN), skin (SKIN), and notochord malformations (NC). Morphological assessments were made by a team of three to four individuals. The team was blinded to the identity, plate layout, and concentrations of the chemicals, thereby minimizing bias in morphological screening assessment. To ensure the assessments were consistent, concentration–response reproducibility of a parathion ethyl quality control plate was performed along with each experimental exposure set up. Details of all measured endpoints can be found at Developmental toxicity zebrafish phenotype atlas. […] Each endpoint was scored as a binary presence/absence and scores were compiled into an “Any effect” endpoint, the presence of abnormality in any individual endpoint.
The Any effect percent was used to calculate the BMC50, 50 % change relative to the background for each endpoint and chemical. All values were reported as the nominal exposure concentration.

[3] = period dark, round 1, conc 3.125
[4] = period dark, round 1, conc 6.25
[5] = period dark, round 1, conc 12.5
[6] = period light, round 1, conc 3.125
[7] = period light, round 1, conc 6.25
[8] = period light, round 1, conc 12.5

Row | SMILES | fold_change [1, 3] | fold_change [1, 4] | fold_change [1, 5] | fold_change [1, 6] | fold_change [1, 7] | fold_change [1, 8] | BMC50 AXIS (curved or bent body axis at 120 hpf) ([2]; Fig. 2, nominal concentration) [µM] | BMC50 CRAN (craniofacial malformation at 120 hpf) ([2]; Fig. 2, nominal concentration) [µM] | BMC50 EDEM (pericardial and/or yolk sac edema at 120 hpf) ([2]; Fig. 2, nominal concentration) [µM] | BMC50 MO24 (mortality at 24 hpf) ([2]; Fig. 2, nominal concentration) [µM] | BMC50 MORT (mortality at 120 hpf) ([2]; Fig. 2, nominal concentration) [µM] | BMC50 Any effect ([2]; nominal concentration) [µM] | any effect BMD50 [2] [µM] | bmd, MO24 ([2]; benchmark dose) | bmd, MORT ([2]; benchmark dose) | bmd, ANY_ ([2]; benchmark dose) | bmd, AXIS ([2]; benchmark dose) | bmd, CRAN ([2]; benchmark dose) | bmd, EDEM ([2]; benchmark dose) | fold_change ([1]; period dark, round 1, conc 25) | other results
1 | Cc1cc2cccc(C)c2cc1C [1,6,7-trimethylnaphthalene] | -0.2752 | -0.07056 | -0.09309 | -0.921 | -0.5316 | -0.2101 | 32.1 | 28.2 | 34.7 | 38.9 | 31.5 | 21.4 | 21.39 | 38.9242 | 31.4823 | 21.386 | 32.075 | 28.1944 | 34.7005 |  | fold_change ([1]; period dark, round 2, conc 12.8): -0.1665; fold_change ([1]; period dark, round 2, conc 16): -0.296; fold_change ([1]; period dark, round 2, conc 20): -0.09002; fold_change ([1]; period light, round 2, conc 12.8): 0.6308; fold_change ([1]; period light, round 2, conc 16): -0.8625; fold_change ([1]; period light, round 2, conc 20): 0.7418; BMC50 LTRK (lower trunk and/or caudal fin at 120 hpf) ([2]; Fig. 2, nominal concentration): 32.9 µM; bmd, LTRK ([2]; benchmark dose, morphology endpoint LTRK): 32.865
2 | Cc1cc2ccccc2cc1C [2,3-dimethylnaphthalene] | -0.07813 | -0.1051 | -0.1104 | -0.3145 | -0.003485 | -1.16 |  |  |  |  |  | 46.6 | 46.56 |  |  | 46.5587 |  |  |  | -0.9852 | fold_change ([1]; period dark, round 1, conc 50): -1.366; fold_change ([1]; period light, round 1, conc 25): -0.6826; fold_change ([1]; period light, round 1, conc 50): -0.533
3 | Cc1ccc2c(C)cccc2c1 [1,6-dimethylnaphthalene] |  |  |  |  |  |  | 46.6 | 42.5 | 46 | 46.6 | 43.4 | 34.6 | 34.56 | 46.5621 | 43.4183 | 34.5645 | 46.5655 | 42.4789 | 45.9847 |  | 
4 | Cc1ccc2c(C)c(C)ccc2c1C [1,2,5,6-tetramethylnaphthalene] | -0.03133 | -0.4187 | -0.4196 | 0.2549 | -0.3197 | 0.8672 |  |  |  |  |  |  |  |  |  |  |  |  |  | -0.1628 | fold_change ([1]; period dark, round 1, conc 50): -0.3813; fold_change ([1]; period light, round 1, conc 25): -0.1531; fold_change ([1]; period light, round 1, conc 50): 0.1565
5 | Cc1ccc2ccccc2c1C [1,2-dimethylnaphthalene] |  |  |  |  |  |  |  |  |  |  |  |  |  |  |  |  |  |  |  |  | LPR behavioral effect ([1]; 120 hpf, light/dark periods, result in words): active
